Data on one compound can be found in BindingDB's records for patent US20240092770 (Recursion Pharmaceuticals, 2024).

For the experiment, the target named is T1, RNA-binding protein 39 [150-331]/DDB1- and CUL4-associated factor 15 (Homo sapiens, UniProt Q14498+Q66K64).
T1 construct: 150-331
Description: TR-FRET Assay. Here is the method: A TR-FRET assay was used to assess the effect of compounds disclosed herein on the interaction between RBM39 and the DCAF15 complex. Test compounds were dissolved to form a 10 mM DMSO stock solution. A 45 μL aliquot of the stock solution was transferred to a 384 pp-plate, and a threefold, 8-point dilution was performed via transferring 15 μL compound solution into 30 μL of DMSO. The plates were then spun at room temperature at 1,000 RPM for 1 minute. A 30 nL aliquot of the diluted compound was transferred to a 384 well plate, which was incubated at room temperature for 15 minutes. Next, Solutions 1, 2, and 3 were prepared as described in the below tables. A 5 μL aliquot of Solution 2 was added to each well, followed by 5 μL of Solution 3 to start the reaction. The final volume of each well was 10 μL. The plates were incubated at room temperature for 60 minutes, and then read.

T1 sequence (Q66K64 whole entry): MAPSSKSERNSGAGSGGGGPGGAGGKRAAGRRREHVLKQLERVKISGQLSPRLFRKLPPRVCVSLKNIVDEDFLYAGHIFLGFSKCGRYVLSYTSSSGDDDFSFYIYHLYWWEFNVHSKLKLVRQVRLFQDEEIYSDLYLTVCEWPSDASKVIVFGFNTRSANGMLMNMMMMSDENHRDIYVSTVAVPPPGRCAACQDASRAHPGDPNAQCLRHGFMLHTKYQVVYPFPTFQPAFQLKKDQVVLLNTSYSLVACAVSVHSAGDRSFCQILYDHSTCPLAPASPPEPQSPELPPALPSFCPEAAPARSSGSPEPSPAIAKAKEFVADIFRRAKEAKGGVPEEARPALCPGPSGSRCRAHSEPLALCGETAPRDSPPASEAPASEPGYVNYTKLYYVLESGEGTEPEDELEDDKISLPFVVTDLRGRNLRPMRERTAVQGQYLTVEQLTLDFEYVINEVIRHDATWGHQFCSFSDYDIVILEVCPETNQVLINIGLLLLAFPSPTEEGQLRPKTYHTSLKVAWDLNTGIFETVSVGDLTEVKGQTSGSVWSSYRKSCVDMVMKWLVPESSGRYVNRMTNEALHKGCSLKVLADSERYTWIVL
T1 sequence (Q14498 150-331): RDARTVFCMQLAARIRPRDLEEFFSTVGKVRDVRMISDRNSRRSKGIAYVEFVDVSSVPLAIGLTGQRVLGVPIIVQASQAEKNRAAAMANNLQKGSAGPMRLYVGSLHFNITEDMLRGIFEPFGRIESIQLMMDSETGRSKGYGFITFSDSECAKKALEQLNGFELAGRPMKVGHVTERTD

On to `Cc1ccc(NS(=O)(=O)c2ncc(C(F)(F)F)s2)c2[nH]cc(C#N)c12` [US20240092770, Compound 25], for which the midpoint of the response, the EC50, lay at 1090 nM. In other words, the single-digit micromolar range.

As usually defined, the EC50 is the concentration at which the effect is half-maximal. High values mean a less potent agent, low ones a more potent agent.
